Experiments:
effector T cells = assay: Effector T cell suppression by iTregs generated with Exe-4 (CTV dilution); format: cell-based; conditions: iTregs generated in the presence of Exe-4, ratio of 1: 4 to effector T cells, vs untreated-iTregs
[1] = tested on: naive CD4^+CD25^- T cells; assay: Treg induction assay; format: cell-based; conditions: Exe-4 (1nM), 5 days
Experimental: Naive CD4^+ CD25^- T cells were selected and activated for 5 days with 1 µg/ml of plate-bound […] anti-CD3 and anti-CD28 antibodies (BD Biosciences). Cells were cultured for 5-days in the presence of IL-2 (10ng/ml; R&D Systems) and TGFβ (2ng/mL; R&D Systems), anti-IL-4 (0.5µg/ml; PeproTech) and anti-IFNγ (2µg/mL; PeproTech) and were treated with Exe-4 (1nM) or left untreated. Then, cells were washed, pulsed for 4-hrs with phorbol myristate acetate (PMA; 50ng/mL; Sigma-Aldrich), ionomycin (500ng/mL; Sigma-Aldrich) and Golgi-stop (1.0µl/mL; BD Biosciences) and then analyzed by FACSCelesta (BD Biosciences) for the expression of Foxp3, Tbet and RoryT as previously reported (38).

[2] = tested on: untransduced-mock and pmY-GLP-1R transduced CD3^+ T cells; assay: Seahorse bioenergetic analysis, mock and pmY-GLP-1R transduced CD3+ T cells; format: cell-based, murine; conditions: pmY-GLP-1R transduced vs untransduced-mock CD3^+ T cells, Exe-4 (1 nM)
Experimental: Cellular Bioenergetics were analyzed using the Seahorse Extracellular Flux Analyzer Xfe96 (Agilent Technologies, Santa Clara, CA, United States), which simultaneously measures Oxygen Consumption Rate (OCR, pmolO2/min), ExtraCellular Acidification Rate (ECAR, mpH/min) and Proton Efflux Rate (PER, pmolH^+/min). For Seahorse experiments 150.000 cells either freshly isolated GLP-1R^pos or GLP-1R^neg CD3^+ T cells or activated with soluble anti-CD3/CD28 at 0.5 µg/ml each in the presence or not of Exe-4 (1 nM); in another setting untransduced mock CD3^+ T cells or pmY-GLP-1R CD3^+ T cells already activated with soluble anti-CD3/CD28 at 0.5 µg/ml each in the presence or not of Exe-4 (1 nM). Cells were resuspended in 50 µL assay medium (Agilent #103576-100 RPMI Medium pH7.4, supplemented with 10mM glucose, 2mM glutamine and 1mM Na-pyruvate) were seeded in each CellTak-precoated well of an Agilent Xfe96 Pro well plate. The cell plate was centrifuged 2 times at 40 × g (zero braking) for 1 minute. After centrifugation, 150 µL warm assay medium was gently added to each well. […]
Seahorse parameters were normalized to cell number in each well. To this purpose, at the end of the Seahorse analysis, cell nuclei were stained with Hoechst 33342 (1 µg/mL) for about 15 min, imaged and counted with Operetta CLS™ software Harmony, as previously described (43). […]

Exendin-4 [Exe-4]
suppression of effector T cells by iTregs (effector T cells): significantly reduced suppression
Ror-yT on iTregs (iTreg stability) [1]: significant reduction
Tbet on iTregs (iTreg stability) [1]: significant reduction
Treg induction (percentage of FoxP3^+CD4^+CD25^+ Tregs) [1]: no substantial differences
ATP production from mitochondrial respiration [2]: significantly increased
OCR values [2]: significantly increased

Source: patent publication EP4623928A1, “GLP-1R ANTAGONISTS FOR THE TREATMENT OF CANCER” (Fiorina, Paolo, priority 2024, dated 2025)
